Literature values, collected in paper PMC5983471 (PLoS ONE, 2018).
Like-named read-outs stand apart in the source and are kept apart here.

How the values were obtained:
[1] = parameters: method as in FDA prescribing information; conditions: ref FDA prescribing information, cited from earlier work
[2] = parameters: method as in FDA prescribing information; conditions: healthy volunteers; ref FDA prescribing information; cited from earlier work
[3] = test system: plasma proteins, primarily albumin; parameters: method as in FDA prescribing information; conditions: ref FDA prescribing information; cited from earlier work
[4] = parameters: method as in FDA prescribing information; conditions: single oral 14C-enzalutamide 160 mg; ref FDA prescribing information; cited from earlier work
[5] = ref FDA prescribing information; cited from earlier work
[6] = test system: CYP2C8; parameters: method as in FDA prescribing information; conditions: healthy volunteers; ref FDA prescribing information; cited from earlier work
[7] = test system: CYP3A4; parameters: method as in FDA prescribing information; conditions: healthy volunteers; ref FDA prescribing information; cited from earlier work
[8] = test system: CYP3A4; parameters: method as in FDA prescribing information; conditions: ref FDA prescribing information, cited from earlier work
[9] = test system: CYP2C9; parameters: method as in FDA prescribing information; conditions: ref FDA prescribing information, cited from earlier work
[10] = test system: CYP2C19; parameters: method as in FDA prescribing information; conditions: ref FDA prescribing information, cited from earlier work
[11] = test system: human CYP2C8 and CYP3A4; parameters: method as in FDA prescribing information; conditions: in vitro; ref FDA prescribing information; cited from earlier work
[12] = test system: castration-resistant prostate cancer; conditions: ref 59 (S1 Protocol), cited from earlier work
[13] = test system: CRPC; conditions: cited from earlier work
[14] = test system: CRPC; conditions: cited from earlier work; remark: listed apart in the source
[15] = AFFIRM, Enzalutamide (N=800), ref Scher et al, 2012
[16] = PREVAIL, Enzalutamide (N=871), ref Beer et al, 2014

CC1(C)C(=O)N(c2ccc(C#N)c(C(F)(F)F)c2)C(=S)N1c1ccc(C(N)=O)c(F)c1 [N-desmethyl enzalutamide]
plasma mean Cmax at steady state ([1]; 160 mg daily oral): 12700 ng/mL | plasma mean predose trough at steady state ([1]; 160 mg daily oral): 13.0 µg/mL | effect of a high-fat meal on AUC [2]: did not alter | bound to plasma proteins [3]: 95% | % of dose recovered in feces as this species [4]: 1%

CNC(=O)c1ccc(N2C(=S)N(c3ccc(C#N)c(C(F)(F)F)c3)C(=O)C2(C)C)cc1F [enzalutamide, 4-(3-[4-cyano-3-(trifluoromethyl)phenyl]-5,5dimethyl-4-oxo-2-sulfanylideneimidazolidin-1-yl)-2-fluoro-N-methylbenzamide]
solubility in water [5]: practically insoluble | plasma mean Cmax at steady state ([1]; 160 mg daily oral): 16600 ng/mL | mean apparent volume of distribution (V/F) ([1]; single oral dose, patients, 29% CV): 110 L | mean apparent clearance (CL/F) ([1]; single oral dose, patients): 0.56 L/h | effect of a high-fat meal on AUC [2]: did not alter | effect of gemfibrozil on composite AUC of enzalutamide plus N-desmethyl enzalutamide [6]: increased | increase of composite AUC of enzalutamide plus N-desmethyl enzalutamide by itraconazole [7]: 1.3 fold | effect on plasma exposure to midazolam (CYP3A4 substrate) ([8]; at steady state): reduced | CYP3A4 inducer strength ([8]; in humans): strong | effect on plasma exposure to warfarin (CYP2C9 substrate) ([9]; at steady state): reduced | CYP2C9 inducer strength ([9]; in humans): moderate | effect on plasma exposure to omeprazole (CYP2C19 substrate) ([10]; at steady state): reduced | CYP2C19 inducer strength ([10]; in humans): moderate | enzymes responsible for the metabolism [11]: CYP2C8 and CYP3A4 | PSA response rate (≥50% PSA declines) ([12]; 30 mg to 600 mg by mouth daily, 78 out of 140 subjects): 56% | patients who discontinued treatment for an AE ([12]; daily dose ≤240 mg): 1/87 | patients who discontinued treatment for an AE ([12]; doses ≥360 mg): 7/53 | grade 3-4 AE: anemia ([12]; overall): 3% | grade 3-4 AE: arthralgia ([12]; overall): 2% | grade 3-4 AE: asthenia ([12]; overall): 2% | grade 3-4 AE: fatigue ([12]; overall): 11% | grade 3-4 AE: seizures ([12]; overall): 2% | mild (grade 2) AE: anorexia ([12]; overall): 5.7% | mild (grade 2) AE: back pain ([12]; overall): 5.7% | mild (grade 2) AE: dyspnea ([12]; overall): 7.9% | mild (grade 2) AE: fatigue ([12]; overall): 27.1% | mild (grade 2) AE: nausea ([12]; overall): 8.6% | maximum tolerated dose [12]: 240 mg daily | HR for death vs placebo ([13]; 95% CI 0.53 to 0.75, P<0.001, ref 4 (S1 Protocol)): 0.63 | Abnormal liver function testing, Grade 3-4 (%) [13, 15]: 0.4% | Arthralgias / musculoskeletal pain, Grade 3-4 (%) [13, 15]: 1% | Diarrhea, Grade 3-4 (%) [13, 15]: 1% | Fatigue, Grade 3-4 (%) [13, 15]: 6% | Headache, Grade 3-4 (%) [13, 15]: 0.8% | Hot flashes, Grade 3-4 (%) [13, 15]: 0% | Seizure, Grade 3-4 (%) [13, 15]: 0.6% | median OS ([13]; enzalutamide 160 mg daily (N=800), ref 4 (S1 Protocol)): 18.4 months | rate of grade 3 or higher AEs ([13]; enzalutamide 160 mg daily, ref 4 (S1 Protocol)): 45.3% | HR for death vs placebo ([14]; 95% CI 0.60 to 0.84, P<0.0001, ref 1 (S1 Protocol)): 0.706 | Abnormal liver function testing, Grade 3-4 (%) [14, 16]: 0.2% | Arthralgias / musculoskeletal pain, Grade 3-4 (%) [14, 16]: 1.4% | Back pain, Grade 3-4 (%) [14, 16]: 2.5% | Constipation, Grade 3-4 (%) [14, 16]: 0.5% | Fatigue, Grade 3-4 (%) [14, 16]: 1.8% | Hypertension, Grade 3-4 (%) [14, 16]: 6.8% | Seizure, Grade 3-4 (%) [14, 16]: 0% | median OS ([14]; enzalutamide 160 mg daily (N=871), ref 1 (S1 Protocol)): 32.4 months
